Several values for one entry are separate records, joined by “and”; a condition that tells them apart may be missing. Equal entries are not always repeated.

Data on two compounds can be found in article PMC3556473, “Absorption, metabolism and excretion of [^14C]pomalidomide in humans following oral administration” (Cancer Chemotherapy and Pharmacology, 2012).

Series [1] in a line: Plasma pharmacokinetics of pomalidomide and circulating metabolites by radiochromatography (metabolite profiling). In kind it is in vivo, human. Set-up: AUC0–24 / AUC0−∞: concentration or dose not given beside the values. The following applies: for Plasma (% AUC relative to TRA): AUC0–24 (unchanged drug or metabolite)/AUC0–24 (TRA) * 100 %; for Tmax / half-life: human, oral, 2 mg; for Tmax: median and range; for half-life: male, read-out: t ½ (converted); for AUC/AUCTRA: plasma exposure relative to total radioactivity. On the procedure:
Individual plasma samples collected from all subjects at 1, 2.5, 4, 6, 10, 12 and 24 h post-dose were analyzed for metabolite profiling. Samples were extracted with acetonitrile, the supernatant was removed, and the pellet was washed with 0.1 % formic acid in water and extracted again with acetonitrile. The combined supernatants were adjusted to 15 or 25 mL by adding acetonitrile then evaporated to dryness under a stream of nitrogen. The residues were re-suspended in 0.1 % formic acid in water, assayed for extraction recovery and analyzed for metabolite profiling. A control plasma sample spiked with [^14C]pomalidomide was extracted in a similar manner to determine the extraction efficiency and stability of [^14C]pomalidomide.
(§1) HPLC analysis for metabolite profiling (HPLC Method 1) was performed using a Waters 2695 Alliance Separation Module (Waters Corp., Milford, MA) with the autosampler set to 4 °C. [^14C]Pomalidomide and metabolites were separated using an ACE C18 column (150 × 4.6 mm, 3 μm; Advanced Chromatography Technologies, Aberdeen, Scotland) equipped with an ACE C18 guard column (10 × 3 mm, 3 μm). The mobile phases used were 25 mM ammonium acetate in water: pH 5.5 with formic acid (mobile phase A) and methanol (mobile phase B). The column temperature was 30 °C, and the flow rate was 0.7 mL/min. The linear gradient was delivered as follows: 0–2 min 100 % A; 2–38 min to 64 % A; 38–44 min to 0 % A; 44–48 min hold at 0 % A; return to initial conditions over 2 min.
(§2) Radioactivity profiles for plasma and excreta were determined by collecting the column eluate into 96-well Deepwell LumaPlates™ at a rate of 0.25 min/fraction. The plates were dried and the radioactivity in each well determined using a PerkinElmer TopCount® NXT™ Microplate Scintillation Counter. HPLC radiochromatograms were reconstructed using LC-ARC data handling software.
For pomalidomide and metabolite concentrations in plasma based on metabolite profiling data, pharmacokinetic data were generated by non-compartmental analysis of plasma versus time profiles using WinNonlin (version 4.1, Enterprise Edition).

Series [2] can be described thus: Metabolite profiling of urine and feces (% of dose excreted). The following applies: for % of dose excreted, Feces: pooled feces 0–96 h; for % of dose excreted, Feces / % of dose excreted, Urine: radiochromatography; for % of dose excreted, Urine: pooled urine 0–72 h. In kind it is in vivo, human. On the procedure: For each subject, urine samples were pooled using an equal percentage by volume of the 0–6, 6–12, 12–24, 24–48 and 48–72 h samples. Pools of the 0–6, 6–12, 12–24, 24–48 and 48-72 h collections were also prepared across subjects and analyzed for metabolite profiling. Samples were mixed and centrifuged prior to the supernatants being transferred to fresh tubes for metabolite profiling analysis.
For each subject, fecal homogenates for metabolite profiling were pooled using an equal percentage by weight of the 0–24, 24–48, 48–72 and 72–96 h samples. Pools of the 0–24, 24-48, 48–72 and 72–96 h collections were also prepared across subjects and analyzed for metabolite profiling. An aliquot of each pool was extracted with acetonitrile; samples were mixed and centrifuged. The supernatant was removed and the pellets re-suspended with 0.1 % formic acid and extracted with acetonitrile. The combined supernatants were evaporated to dryness under a stream of nitrogen and the residue re-suspended in methanol:0.1 % formic acid in water (1:1). Samples were assayed for extraction recovery prior to metabolite profiling. A control fecal homogenate spiked with [^14C]pomalidomide was extracted in a similar manner to determine the extraction efficiency and stability of [^14C]pomalidomide.
as §1, §2

A further series concerns OPM-2 MM cell. The experiment in a line: Inhibition of MM cell proliferation ([3H]-thymidine incorporation, 3-day culture). In kind it is cell-based. The following applies: Homo sapiens. On the procedure:
(§3) Metabolites and hydrolysis products of pomalidomide were tested for pharmacological activity in the following three assay systems: (1) inhibition of MM cell proliferation, (2) enhancement of primary human T cell IL-2 production and (3) inhibition of TNF-α production by lipopolysaccharide (LPS)-stimulated human peripheral blood mononuclear cells (PBMC). For all three assay types, compounds were dissolved in 100 % dimethyl sulfoxide (DMSO) and diluted into complete cell culture medium, consisting of Roswell Park Memorial Institute (RPMI)-1640 plus penicillin, streptomycin and L-glutamine (Mediatech, Manassas, VA). The MM cell proliferation cell culture medium contained 10 % fetal bovine serum, while the primary human cell cultures contained 10 % human AB serum (Invitrogen, Brown Deer, WI). The final DMSO concentration in the cell culture media was 0.25 %.
(§4) The human MM cell line OPM-2 was obtained from DSMZ (Braunschweig, Germany), and human MM cell lines U266 B1 and NCI-H929 were obtained from ATCC (Manassas, VA). Inhibition of MM cell proliferation was assessed by the [^3H]-thymidine incorporation assay in a 3-day culture in the presence of compounds in complete medium, as previously described. Primary human T cells were isolated from PBMC by negative selection using the RosetteSep T Cell Enrichment Cocktail (STEMCELL Technologies, Tukwila, WA) according to the manufacturer’s procedures. Costimulation of T cell IL-2 production was measured in a 2-day culture of primary human T cells isolated from healthy donors stimulated with anti-CD3 antibody in the presence of compounds, as previously described. Inhibition of TNF-α production by LPS-stimulated human PBMC was measured in a 1-day culture in the presence of compound, as previously described.
(Dividing cells build labelled thymidine or BrdU into new DNA.)

The next series deals with U266 MM cell. Described as above. In kind it is cell-based. The following applies: Homo sapiens, U-266. On the procedure:
as §3, §4

Another series deals with H929 MM cell. The series is described as above. In kind it is cell-based. Conditions: Homo sapiens, NCI-H929. On the procedure:
as §3, §4

The mark [3] stands for this setting: plasma, plasma, radiochromatography, geometric mean (%CV).
The mark [4] stands for this setting: plasma, radiochromatography, geometric mean (%CV).

The term Tmax denotes the time from dosing to the highest level. The term IC50 denotes the midpoint of a concentration-inhibition curve. As for `Nc1cccc2c1C(=O)N(C1CCC(=O)NC1=O)C2=O` (racemic) [Pomalidomide, (RS)-4-amino-2-(2,6-dioxo-piperidin-3-yl)-isoindoline-1,3-dione], in series [1], the “Plasma (% AUC relative to TRA)” value worked out at 69.6%; the AUC/AUCTRA was 70% and 69.6%. Also, the Tmax in series [1] (plasma, radiochromatography) worked out at 2.5 h. In addition, the half-life in series [1] (setting [3]) is 9.4 h. In series [1] (listed as pomalidomide), the AUC/AUCTRA entry is given as “approximately 70%”. For the same compound, in series [1] (setting [4]), the “AUC0–24” value is 135 (33.4) ngEq*h/mL, the “AUC0−∞” value is reported as 165 (43.2) ngEq*h/mL, the C max is given as 11.0 (22.5) ngEq/mL and the “t ½” value is on record as 9.41 (25.0) h. For the same compound, in series [2] (pomalidomide, this study), the “Percent dose excreted in human urine, Parent” value amounted to 2.2% and the “Percent dose excreted in human urine, Total” value is 72.8%. In addition, in series [2], the “% of dose excreted, Feces” value was 7.7% and the “% of dose excreted, Urine” value is given as 2.2%. For the same compound, the “% of dose excreted, Feces” value in series [2] (listed as pomalidomide) amounted to 8%. In series [2] (urine + feces, % of the dose), the “dose excreted as unchanged drug (excreta)” value came to 10%. For the same compound, in the series with OPM-2 MM cell, the IC50 amounted to 38 nM. In the series with U266 MM cell, this compound displayed an IC50 of 28 nM. The same compound registered an IC50 in the series with H929 MM cell of 35 nM.

For `Nc1c(O)ccc2c1C(=O)N(C1CCC(=O)NC1=O)C2=O` (stereo not drawn) [Metabolite M17, 5-hydroxy pomalidomide], in series [1], the “Plasma (% AUC relative to TRA)” value turned out to be 4.0% and the AUC/AUCTRA turned out to be 4.00%. In series [1] (plasma, radiochromatography), the Tmax is 2.5 h. Further, the half-life in series [1] (setting [3]) was 11 h. In addition, in series [1] (setting [4]), the “AUC0–24” value was 7.76 (24.8) ngEq*h/mL, the “AUC0−∞” value is recorded as 11.5 (36.9) ngEq*h/mL and the C max is reported as 0.68 (33.3) ngEq/mL. In series [2], the “% of dose excreted, Feces” value amounted to 2.8% and the “% of dose excreted, Urine” value worked out at 3.2%. The compound also came in with an IC50 in the series on OPM-2 MM cell above 1000 nM. Also, the 50% inhibitory concentration (IC50) with U266 MM cell is above 1000 nM. The same compound came in with an IC50 in the series on H929 MM cell above 1000 nM.
